From patent US20170157150A1, “ORAL DOSAGE FORM COMPRISING TRI-SUBSTITUTED GLYCEROL COMPOUNDS” (Alphaptose GmbH, priority 2006, published 2017) come the findings set out here.

Data set [1] concerns LNCaP androgen-sensitive human prostate adenocarcinoma cells. Put plainly: Trypan blue dye exclusion, percentage of living tumor cells. It is filed as cell-based. To be noted: for survival rate: untreated controls about 86%. As for the experimental part:
(§1) FIG. 3. Depicts the in vitro effects of 1-O-octadecyl-2-O-methyl-glycero-3-phosphocholine (final concentration 10 μM), (ionizing) radiation (absorbed dose of 5 Gray units; indicated as “RT”), and a combination thereof on programmed cell death (apoptosis) and the survival rate of LNCaP androgen-sensitive human prostate adenocarcinoma cells. Apoptosis was determined using the Apo-ONE™ Homogenous Caspase-3/7 Assay, Promega, Inc., Madison, Wis., USA according to the manufacturer's instructions. The percentage of living cancer cells was estimated by means of trypan blue dye exclusion as described (Freshney, R. I. (1994) Culture of Animal Cells: A Manual of Basic Technique. 3rd Ed. Wiley-Liss. New York. USA). The cells were exposed to radiation six hours after (FIG. 3A), concomitantly with (FIG. 3B), or six hours before administration of 1-O-octadecyl-2-O-methyl-glycero-3-phospho-choline (FIG. 3C). The caspase assay was performed 12 hours after exposure to radiation. The respective data shown represent the average of two independent experiments.
(§2) First, the in vitro effects of 1-O-octadecyl-2-O-methyl-glycero-3-phosphocholine, (ionizing) radiation, and a combination thereof on programmed cell death (apoptosis) and the survival rate of LNCaP androgen-sensitive human prostate adenocarcinoma cells were measured. The LNCaP cell line was established from a metastatic lesion of the adenocarcinoma. The cells were treated with a final concentration of 10 μM 1-O-octadecyl-2-O-methyl-glycero-3-phosphocholine and (ionizing) radiation corresponding to an absorbed dose of 5 Gray units.
(§3) Apoptosis was determined using the Apo-ONE™ Homogenous Caspase-3/7 Assay, Promega, Inc., Madison, Wis., USA according to the manufacturer's instructions. The percentage of living tumor cells was estimated by means of trypan blue dye exclusion as described (Freshney, R. I. (1994) Culture of Animal Cells: A Manual of Basic Technique. 3rd Ed. Wiley-Liss. New York. USA)
(§4) The cells were exposed to radiation six hours after (FIG. 3A), concomitantly with (FIG. 3B), or six hours before administration of 1-O-octadecyl-2-O-methyl-glycero-3-phospho-choline (FIG. 3C). The caspase assay was performed 12 hours after exposure to radiation. The respective data shown represent the average of two independent experiments.

The test system is the same in data set [2]. Put plainly: Apo-ONE Homogenous Caspase-3/7 Assay (apoptosis). Type of data set: cell-based. As for the experimental part:
as §1, §2, §3, §4
(§5) In a further approach, 10 μM 1-O-octadecyl-2-O-methyl-glycero-3-phosphocholine (final concentration; “CHEM”) and (ionizing) radiation (5 Gray units; “RT”) were administered simultaneously to the LNCaP cells but the subsequent incubation period was extended to 24 hours. Apoptosis was measured using the Apo-ONE™ Homogenous Caspase-3/7 Assay as described above and expressed as relative fluorescence units (RFLU). The percentage of apoptotic cells was determined by flow cytometric analysis of annexin V-PE positive-stained and 7-AAD (7-Amino ActinomycinD) negative-stained cells (both purchased from BD Biosciences, San Jose, Calif., USA) according to established standard protocols. The data represent means±SEM from three independent experiments.
(§6) Next, the interaction of 1-O-octadecyl-2-O-methyl-glycero-3-phosphocholine administration (“CHEM”) and androgen deprivation (“AD”) was investigated. LNCaP cells were deprived of androgen for two days by charcoal absorption of serum according to established procedures well known in the art. CHEM was added in a final concentration of 5 μM and 10 μM, respectively.
(§7) Apoptosis was measured using the Apo-ONE™ Homogenous Caspase-3/7 Assay as described above and expressed as relative fluorescence units (RFLU). The percentage of apoptotic cells was determined via annexin V-PE/7-AAD staining as described above. The caspase-3/7 assay and annexin staining were performed 22 hours after CHEM treatment.

A further data set deals with LNCaP cells. Put plainly: Flow cytometry of annexin V-PE positive / 7-AAD negative cells (apoptotic cells). Type of data set: cell-based, human. As for the experimental part: as §5, §6, §7
(In flow cytometry, cells or beads pass a laser one at a time.)

A further data set relates to LNCaP C4-2 cells. The data set is described as follows: Apoptosis after CHEM+RT in androgen-insensitive cells. It is filed as cell-based. As to conditions: data not shown.
The test system of a further data set is LNCaP-Res cells. Described as above. It is filed as cell-based. As to conditions: data not shown.
In data set [3] the test system is LNCaP cells grown orthotopically in the prostates of nude mice. The data set is described as follows: Orthotopic LNCaP prostate tumor model, serum PSA and tumor volume (MRI). As to conditions: 30 mg/kg body weight/day intraperitoneally for 15 days + radiation 5 Gray on day 7; preliminary study. Type of data set: in vivo. As for the experimental part:
FIG. 4. Depicts the in vivo effects of 1-O-octadecyl-2-O-methyl-glycero-3-phosphocholine (30 mg/kg body weight/day administered intraperitoneally for 15 days: FIG. 4A), (ionizing) radiation (absorbed dose of 5 Gray units administered on day 7; FIG. 4C), and a combination thereof (FIG. 4B) on LNCaP cells grown orthotopically in the prostates of nude mice (seven mice/group). Tumor growth was assessed via determining the serum level of the prostate-specific antigen (PSA) using a commercially available test kit as well as the tumor volume by means of magnetic resonance imaging.
Additionally, in a preliminary study the in vivo effects of 1-O-octadecyl-2-O-methyl-glycero-3-phosphocholine (ionizing) radiation, and a combination thereof on LNCaP cells grown orthotopically in the prostates of nude mice (seven mice/group) was investigated.
1-O-octadecyl-2-O-methyl-glycero-3-phosphocholine was administered intraperitoneally in a dose of 30 mg/kg body weight/day administered intraperitoneally for 15 days (FIG. 4A; studies using different routes of administration such as orally or by gavage are currently under way). […] Tumor growth was assessed via determining the serum level of the prostate-specific antigen (PSA) using a commercially available test kit as well as the tumor volume by means of magnetic resonance imaging.

The nature of data set [4]: Differential scanning calorimetry, excipient compatibility. Type of data set: physicochemical. To be noted: crystalline compound, heating 5 K/min up to 300° C., cooling 1 K/min down to −30° C. As for the experimental part:
FIG. 1. Depicts the results of differential scanning calorimetry (DCS) analyses for determining excipient compatibility using a Netzsch DSC 204 apparatus (Netzsch Gerätebau GmbH, Selb, Germany) with a heating rate of 5 K/min up to 300° C. and a cooling rate of 1 K/min down to −30° C. (temperature onset at room temperature (approx. 20° C.)). The below-mentioned samples were tested: crystalline 1-O-octadecyl-2-O-methyl-glycero-3-phosphocholine alone (black curves), the following excipients alone (red curves): lactose (FIG. 1A), crospovidone (FIG. 1B), starch 1500 (FIG. 1C), siliciumdioxide (FIG. 1D), as well as magnesium stearate (FIG. 1E), and binary mixtures of 1-O-octadecyl-2-O-methyl-glycero-3-phosphocholine and each excipient (green curves).
Differential scanning calorimetry (DCS) analyses were performed for determining the compatibility of different excipients for formulating tablets according to the present invention.
DSC is a thermoanalytical technique in which the difference in the amount of heat required to increase the temperature of a sample and reference is measured as a function of temperature. Both the sample and reference are maintained at nearly the same temperature throughout the experiment. Generally, the temperature program for a DSC analysis is designed such that the temperature increases or decreases linearly as a function of time. […]
(In general: DSC measures the heat that a sample takes up or gives off during a temperature scan.)

The mark [5] stands for this setting: 10 μM CHEM + RT (5 Gray) simultaneously, 24 hours incubation, means±SEM, p<0.0001 vs CHEM and RT.
Setting [6] is: AD + R1881 (two days prior to CHEM) + 5 μM CHEM, 22 hours.
Setting [7] is: AD + R1881 (two days prior to CHEM) + 10 μM CHEM, 22 hours.

Turning to `CCCCCCCCCCCCCCCCCCOCC(COP(=O)([O-])OCC[N+](C)(C)C)OC` (stereo not drawn) [1-O-octadecyl-2-O-methyl-glycero-3-phosphocholine], the “survival rate of tumor cells” value in data set [1] (10 μM compound alone, FIG. 3A experiment, untreated controls about 85%) was “about 60%”. The survival rate entry is reported as “about 50%” in data set [1] (10 μM compound alone, FIG. 3B experiment) and “about 55%” in data set [1] (10 μM compound concomitantly with radiation (5 Gray), FIG. 3B). In addition, the survival of cells result is “about 45%” in data set [1] (10 μM compound alone, FIG. 3C experiment) and “about 40%” in data set [1] (10 μM compound six hours after radiation (5 Gray), combined treatment, FIG. 3C). Further, in data set [1] (10 μM compound six hours prior to radiation (5 Gray), combined treatment, FIG. 3A, untreated controls about 85%), the “survival of tumor cells” value was “about 45%”. In addition, the “Caspase-3/7 activity (RFLU)” value is reported as 1514 ± 102 RFLU in data set [2] (setting [5]); 580 ± 207 RFLU in data set [2] (10 μM CHEM alone, 24 hours incubation, means±SEM, three experiments, control 193 ± 39); 453 RFLU in data set [2] (setting [6]); 962 RFLU in data set [2] (setting [7]); 380 RFLU in data set [2] (Contr. cells + 5 μM CHEM, 22 hours after treatment, Contr. 235); 436 RFLU in data set [2] (Contr. cells + 10 μM CHEM, 22 hours after treatment, Contr. 235). For the same compound, the “Caspase-3/7 activity (RFLU)” value worked out at 126 RFLU in data set [2] (androgen deprivation (AD) two days + 5 μM CHEM, 22 hours, AD alone 81) and 115 RFLU in data set [2] (androgen deprivation (AD) two days + 10 μM CHEM, 22 hours, AD alone 81). Also, the “extent of apoptosis, increase in cells only exposed to the chemical as compared to combined treatment” value in data set [2] (10 μM compound six hours after radiation (5 Gray), FIG. 3C) is listed as “about 25%”. Also, the “increase in apoptotic response (caspase-3/7 assay)” value in data set [2] (10 μM compound six hours prior to radiation (5 Gray), combined treatment, assay 12 hours after radiation, FIG. 3A) is recorded as more than 2.5 fold. Also, the “% Annexin V-PE pos. cells” value in the data set on LNCaP cells (setting [5]) stood at 31.7 ± 1.0 %; with LNCaP cells (10 μM CHEM alone, 24 hours incubation, means±SEM, three experiments, control 3.6 ± 0.2), 18.6 ± 1.0%; with LNCaP cells (setting [6]), 14.6%; with LNCaP cells (setting [7]), 21.6%; in the data set on LNCaP cells (Contr. cells + 5 μM CHEM, 22 hours after treatment, Contr. 9.8), 13.0%; with LNCaP cells (Contr. cells + 10 μM CHEM, 22 hours after treatment, Contr. 9.8) it was 17.5%. For the same compound, the “% Annexin V-PE pos. cells” value amounted to 15.4% with LNCaP cells (androgen deprivation (AD) two days + 5 μM CHEM, 22 hours, AD alone 12.6) and 27.4% in the data set with LNCaP cells (androgen deprivation (AD) two days + 10 μM CHEM, 22 hours, AD alone 12.6). The “apoptotic response in androgen-deprived LNCaP cells” value in the data set on LNCaP cells (androgen-deprived cells, 5 μM and 10 μM) was “dose-dependent significant increase”. In addition, the “reversal of the apoptotic effect by synthetic androgen added prior to treatment” value in the data set on LNCaP cells (androgen-deprived cells, R1881 added two days prior) is on record as “not reversed”. In addition, the “apoptosis in CHEM+RT treated cells” value with LNCaP C4-2 cells and with LNCaP-Res cells was “enhancement of apoptosis” each time. The “PSA serum levels, combined treatment compared to either individual treatment” value in data set [3] is given as “significant decrease”.

Consider `C[C@]1(O)CC[C@H]2[C@@H]3CCC4=CC(=O)CCC4=C3C=C[C@@]21C` [R1881], for which the “Caspase-3/7 activity (RFLU)” value in data set [2] (AD + R1881, no CHEM, AD alone 81) turned out to be 130 RFLU. Also, the “% Annexin V-PE pos. cells” value in the data set on LNCaP cells (AD + R1881, no CHEM, AD alone 12.6) was determined as 7.0%.

In the case of `OC[C@H]1O[C@@H](O[C@H]2[C@H](O)[C@@H](O)C(O)O[C@@H]2CO)[C@H](O)[C@@H](O)[C@H]1O` (stereo partly drawn) [lactose], the “interaction of excipient with 1-O-octadecyl-2-O-methyl-glycero-3-phosphocholine (DSC thermogram of binary mixture)” value in data set [4] is “show such interactions”.

Consider magnesium stearate, for which, in data set [4], the “interaction of excipient with 1-O-octadecyl-2-O-methyl-glycero-3-phosphocholine (DSC thermogram of binary mixture)” value was “dominate the thermogram”.
